In this assay the target is T1, human TLR7 (Homo sapiens, UniProt Q9NYK1).
T1 sequence (Q9NYK1 27-1049): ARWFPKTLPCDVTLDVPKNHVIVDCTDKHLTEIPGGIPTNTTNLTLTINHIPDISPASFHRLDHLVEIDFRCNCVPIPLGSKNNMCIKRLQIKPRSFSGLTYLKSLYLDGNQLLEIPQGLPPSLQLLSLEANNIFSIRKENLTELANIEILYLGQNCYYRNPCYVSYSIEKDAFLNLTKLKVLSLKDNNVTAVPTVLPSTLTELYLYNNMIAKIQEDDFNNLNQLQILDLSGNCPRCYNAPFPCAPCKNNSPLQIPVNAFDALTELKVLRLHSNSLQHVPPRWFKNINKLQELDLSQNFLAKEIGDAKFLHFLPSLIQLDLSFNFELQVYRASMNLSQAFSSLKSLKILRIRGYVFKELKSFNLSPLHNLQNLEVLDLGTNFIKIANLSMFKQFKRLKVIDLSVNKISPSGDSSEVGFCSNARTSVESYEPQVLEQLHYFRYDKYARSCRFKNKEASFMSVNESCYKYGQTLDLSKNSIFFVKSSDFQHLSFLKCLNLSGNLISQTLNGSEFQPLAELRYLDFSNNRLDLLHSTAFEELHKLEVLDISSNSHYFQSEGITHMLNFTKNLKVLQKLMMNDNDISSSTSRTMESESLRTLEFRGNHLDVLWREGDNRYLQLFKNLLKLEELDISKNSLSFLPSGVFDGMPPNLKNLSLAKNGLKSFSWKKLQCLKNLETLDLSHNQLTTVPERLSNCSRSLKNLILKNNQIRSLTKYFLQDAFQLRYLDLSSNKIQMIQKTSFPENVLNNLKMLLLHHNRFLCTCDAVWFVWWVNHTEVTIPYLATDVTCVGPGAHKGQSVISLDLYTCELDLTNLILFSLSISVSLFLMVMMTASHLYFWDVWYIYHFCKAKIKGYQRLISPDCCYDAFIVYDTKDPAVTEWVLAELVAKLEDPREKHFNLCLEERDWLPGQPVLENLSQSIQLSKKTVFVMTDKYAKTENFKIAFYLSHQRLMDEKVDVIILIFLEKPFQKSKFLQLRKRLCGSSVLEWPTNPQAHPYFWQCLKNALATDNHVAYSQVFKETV
Briefly: HEK293-Blue-hTLR-7 cells assay (SEAP reporter). The assay is classed as cell-based. The settings on record: for Ratio (EC50(prodrug)/EC50(active form)): EC50 of prodrug over EC50 of corresponding active form; for EC50: HEK293-Blue-hTLR-7 cells, SEAP reporter, 20 hrs, prodrug, read-out: HEK293-hTLR-7 EC50 (Prodrug). Put shortly:
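HEK293-Blue-hTLR7 cells with NF-κB/AP-1-driven SEAP reporter exposed to serially diluted compound (1% DMSO) for 20 hrs at 37° C. Supernatant SEAP measured with QUANTI-Blue after 2 hrs at 37° C, absorbance 620~655 nm; agonism expressed as EC50.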

Consider `CCN(C)C(=O)n1c(=O)n(Cc2ccc(Cl)cc2)c2nc([S@@](=N)(=O)CC)nc(N)c21` [Example 42-A, 6-Amino-9-[(4-chlorophenyl)methyl]-N-ethyl-2[S(S)-ethylsulfonimidoyl]-N-methyl-8-oxo-purine-7-carboxamide], for which the “Ratio (EC50(prodrug)/EC50(active form))” value worked out at 570.4 and the concentration for a half-maximal effect (EC50) amounted to 40.5 µM.

Turning to `CCCN(C)C(=O)n1c(=O)n(Cc2ccc(C)cc2)c2nc([S@](=N)(=O)CC)nc(N)c21` [Example 43-A, 6-Amino-2-[S(R)-ethylsulfonimidoyl]-N-methyl-8-oxo-N-propyl-9-(p-tolylmethyl)purine-7-carboxamide], the “Ratio (EC50(prodrug)/EC50(active form))” value is 1000 and the EC50 is 110 µM.

Consider `CCCN(C)C(=O)n1c(=O)n(Cc2ccc(Cl)cc2)c2nc([S@@](=N)(=O)CC)nc(N)c21` [Example 41-B, 6-Amino-9-[(4-chlorophenyl)methyl]-2-[S(S)-ethylsulfonimidoyl]-N-methyl-8-oxo-N-propyl-purine-7-carboxamide], for which the “Ratio (EC50(prodrug)/EC50(active form))” value is reported as 452.1 and the concentration for a half-maximal effect (EC50) was 32.1 µM.

As for `CCCN(C)C(=O)n1c(=O)n(Cc2ccc(Cl)cc2)c2nc([S@](=N)(=O)CC)nc(N)c21` [Example 41-A, 6-Amino-9-[(4-chlorophenyl)methyl]-2-[S(R)-ethylsulfonimidoyl]-N-methyl-8-oxo-N-propyl-purine-7-carboxamide], the “Ratio (EC50(prodrug)/EC50(active form))” value is given as 518.8 and the EC50 turned out to be 44.1 µM.
